# In patent US20020173424A1, “Heterocyclyl-substituted benzoylcyclohexandiones, their preparation, and their use as herbicides” (priority 2000, published 2002):
# Tests used:
# Setaria species = test: Comparative experiment, post-emergence action against Setaria species; type: in vivo; conditions: even at a lower application rate
# Procedure: Seeds of monocotyledonous and dicotyledonous weeds are placed in sandy loam soil in cardboard pots, covered with soil and grown in the greenhouse under good growth conditions. Two to three weeks after sowing, the experimental plants are treated at the three-leaf stage. The compounds according to the invention, which are formulated as wettable powders or as emulsion concentrates, are sprayed at a rate of 1 kg of active substance or less per hectare (converted) onto the green plant organs at an application rate of 600 to 800 l of water per ha (converted). After the experimental plants have remained in the greenhouse for approx. 3 to 4 weeks under optimal growth conditions, the effect of the compositions is scored visually in comparison with untreated controls. The compounds according to the invention also have a good herbicidal action against a broad spectrum of economically important monocotyledonous and dicotyledonous harmful plants when applied post-emergence. A large number of compositions according to the invention have an outstanding herbicidal action against the harmful plants.
# 5. Comparative Experiments
# Analogously to the experimental conditions mentioned under item 2 (post-emergence herbicidal action), compound No. 1.1 according to the invention was compared with a prior-art compound with regard to its effect against Setaria species.
SMILES,action against Setaria species compared with prior-art compound (Setaria species),melting point [°C]
"CS(=O)(=O)c1ccc(C(=O)C2C(=O)CCCC2=O)c(Cl)c1C1=NOC2OCCC12 (centres unmarked) [1.1, 2-[2-chloro-4-methylsulfonyl-3-(3a,4,5,6a-tetrahydrofuro-[3,2-d]isoxazol-3-yl)benzoyl]cyclohexane-1,3-dione]",more potent action against Setaria species than the prior-art compound,
"CCS(=O)(=O)c1ccc(C(=O)C2C(=O)CCCC2=O)c(Cl)c1C1=NOC2OCCC12 (centres unmarked) [1.2, 2-[2-chloro-4-ethylsulfonyl-3-(3a,4,5,6a-tetrahydrofuro[3,2-d]isoxazol-3-yl)benzoyl]cyclohexane-1,3-dione]",,99
